Source: patent US9309242B2, “Substituted pyrido[2,3-b]pyrazines as FGFR kinase inhibitors” (priority 2011, dated 2016)
Like-named read-outs stand apart in the source and are kept apart here.

How the values were obtained:
FGFR1 (h) = FGFR1 (h) (Homo sapiens, UniProt P11362); assay: FGFR1 (enzymatic assay), TR-FRET; format: biochemical; conditions: average values if tested multiple times, read-out: FGFR 1 pIC50 (converted)
FGFR2 (h) = FGFR2 (h) (Homo sapiens, UniProt P21802); assay: FGFR2 (enzymatic assay), TR-FRET; format: biochemical; conditions: enzymatic assay; average values if tested multiple times; read-out: FGFR 2 pIC50 (converted)
Summary of the method: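 Compound (1% DMSO final) was combined with FGFR2 (h), 150 ng/ml, plus 0.4 μM ATP and 500 nM biotin-Flt3 in Mn2+-containing HEPES buffer at pH 7.5.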

FGFR3 (h) = FGFR3 (h) (Homo sapiens, UniProt P22607); assay: FGFR3 (enzymatic assay), TR-FRET; format: biochemical; conditions: average values if tested multiple times, read-out: FGFR 3 pIC50 (converted)
Chain of FGFR3 (h) (P22607 23-806): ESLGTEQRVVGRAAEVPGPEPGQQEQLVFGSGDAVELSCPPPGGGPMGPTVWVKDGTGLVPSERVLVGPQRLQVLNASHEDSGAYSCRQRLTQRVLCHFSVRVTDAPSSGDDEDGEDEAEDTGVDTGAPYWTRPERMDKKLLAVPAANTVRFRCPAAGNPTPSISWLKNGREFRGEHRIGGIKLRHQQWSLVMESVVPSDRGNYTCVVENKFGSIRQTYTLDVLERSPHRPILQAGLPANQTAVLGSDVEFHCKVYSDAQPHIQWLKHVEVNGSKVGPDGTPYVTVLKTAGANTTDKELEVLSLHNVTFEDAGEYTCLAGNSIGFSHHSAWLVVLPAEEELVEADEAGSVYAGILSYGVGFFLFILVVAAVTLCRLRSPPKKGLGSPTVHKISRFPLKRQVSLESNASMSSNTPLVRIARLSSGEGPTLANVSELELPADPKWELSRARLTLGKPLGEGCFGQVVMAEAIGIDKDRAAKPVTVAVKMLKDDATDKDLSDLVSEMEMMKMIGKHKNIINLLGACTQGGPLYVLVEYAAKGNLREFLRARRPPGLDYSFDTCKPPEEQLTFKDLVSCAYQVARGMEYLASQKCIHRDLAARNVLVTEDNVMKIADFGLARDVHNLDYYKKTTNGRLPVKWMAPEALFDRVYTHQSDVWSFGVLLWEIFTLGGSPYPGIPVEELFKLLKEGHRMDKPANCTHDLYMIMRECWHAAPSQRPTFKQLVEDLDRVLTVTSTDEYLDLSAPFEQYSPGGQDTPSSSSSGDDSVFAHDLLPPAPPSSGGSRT
Text: Time-Resolved Fluorescence Resonance Energy Transfer (TR-FRET) signal (ex340 nm.

FGFR4 (h) = FGFR4 (h) (Homo sapiens, UniProt P22455); assay: FGFR4 (enzymatic assay), TR-FRET; format: biochemical; conditions: FGFR 4 pIC50, enzymatic assay; average values if tested multiple times
Chain of FGFR4 (h) (P22455 22-802): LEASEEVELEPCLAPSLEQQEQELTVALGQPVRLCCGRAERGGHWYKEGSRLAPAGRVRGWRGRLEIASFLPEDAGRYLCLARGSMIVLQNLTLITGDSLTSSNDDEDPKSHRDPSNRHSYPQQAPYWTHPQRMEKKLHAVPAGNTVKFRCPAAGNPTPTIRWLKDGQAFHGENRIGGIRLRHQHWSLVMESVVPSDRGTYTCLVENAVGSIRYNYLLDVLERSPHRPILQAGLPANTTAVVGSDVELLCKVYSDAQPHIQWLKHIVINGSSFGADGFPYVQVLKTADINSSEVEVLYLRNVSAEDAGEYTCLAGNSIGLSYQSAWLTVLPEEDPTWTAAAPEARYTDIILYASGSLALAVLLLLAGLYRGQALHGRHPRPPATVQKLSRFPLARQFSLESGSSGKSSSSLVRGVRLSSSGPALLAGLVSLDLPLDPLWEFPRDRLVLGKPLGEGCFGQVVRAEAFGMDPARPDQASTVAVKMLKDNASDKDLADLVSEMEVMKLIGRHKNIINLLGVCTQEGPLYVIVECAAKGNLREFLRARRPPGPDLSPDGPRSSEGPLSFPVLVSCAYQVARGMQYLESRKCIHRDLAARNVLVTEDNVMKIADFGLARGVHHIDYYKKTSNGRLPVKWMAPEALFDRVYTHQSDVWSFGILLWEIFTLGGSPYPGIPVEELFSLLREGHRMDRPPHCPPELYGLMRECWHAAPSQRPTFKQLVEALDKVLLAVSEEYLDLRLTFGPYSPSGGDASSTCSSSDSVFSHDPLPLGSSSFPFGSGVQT

KDR (h) = KDR (h) (Homo sapiens, UniProt P35968); assay: KDR (VEGFR2) (enzymatic assay), TR-FRET; format: biochemical; conditions: average values if tested multiple times, read-out: VEGFR 2 (KDR) pIC50 (converted)
Chain of KDR (h) (P35968 20-1356): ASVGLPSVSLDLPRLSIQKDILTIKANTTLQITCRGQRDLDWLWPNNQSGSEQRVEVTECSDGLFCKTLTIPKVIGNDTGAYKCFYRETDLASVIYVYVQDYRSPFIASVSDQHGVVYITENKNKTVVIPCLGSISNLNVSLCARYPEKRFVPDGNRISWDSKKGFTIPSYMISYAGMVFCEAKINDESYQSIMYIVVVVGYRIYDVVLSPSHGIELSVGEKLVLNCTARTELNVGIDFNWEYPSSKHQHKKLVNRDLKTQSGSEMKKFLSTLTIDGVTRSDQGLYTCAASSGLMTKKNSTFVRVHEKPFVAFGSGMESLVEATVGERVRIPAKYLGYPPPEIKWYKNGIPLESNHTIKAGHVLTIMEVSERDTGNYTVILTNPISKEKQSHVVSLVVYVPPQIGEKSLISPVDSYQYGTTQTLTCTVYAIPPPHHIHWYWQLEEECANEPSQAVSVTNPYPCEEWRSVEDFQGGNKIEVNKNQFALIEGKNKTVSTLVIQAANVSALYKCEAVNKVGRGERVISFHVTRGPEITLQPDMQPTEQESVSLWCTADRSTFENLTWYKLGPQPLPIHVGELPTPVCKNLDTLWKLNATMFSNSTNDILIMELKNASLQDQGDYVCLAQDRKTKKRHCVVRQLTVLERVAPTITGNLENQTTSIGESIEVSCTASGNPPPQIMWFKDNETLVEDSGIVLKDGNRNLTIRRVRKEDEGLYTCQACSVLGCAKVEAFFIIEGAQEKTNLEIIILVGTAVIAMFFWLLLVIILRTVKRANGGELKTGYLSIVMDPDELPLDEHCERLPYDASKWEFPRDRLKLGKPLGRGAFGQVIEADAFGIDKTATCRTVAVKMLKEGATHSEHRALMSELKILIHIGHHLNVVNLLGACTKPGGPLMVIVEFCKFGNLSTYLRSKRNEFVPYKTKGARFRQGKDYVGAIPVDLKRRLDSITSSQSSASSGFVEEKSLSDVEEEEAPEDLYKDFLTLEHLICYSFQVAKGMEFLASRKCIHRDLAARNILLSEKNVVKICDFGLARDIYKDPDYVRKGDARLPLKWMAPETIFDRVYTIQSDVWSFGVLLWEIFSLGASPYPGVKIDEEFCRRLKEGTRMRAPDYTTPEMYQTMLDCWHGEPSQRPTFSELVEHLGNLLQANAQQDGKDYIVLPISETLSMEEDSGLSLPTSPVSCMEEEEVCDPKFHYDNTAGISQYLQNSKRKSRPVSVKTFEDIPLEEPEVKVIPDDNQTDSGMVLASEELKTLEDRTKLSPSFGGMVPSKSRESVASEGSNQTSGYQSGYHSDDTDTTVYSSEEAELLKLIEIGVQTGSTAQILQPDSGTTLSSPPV
Summary of the method: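 Enzyme at 150 ng/ml was incubated 120 min at room temperature with 500 nM Btn-Flt3 peptide and 3 μM ATP in 50 mM HEPES pH 7.5, 6 mM MnCl2, 1 mM DTT, 0.1 mM Na3VO4, 0.01% Triton-X-100, 1% DMSO final. EDTA stop with Eu-anti-P-Tyr/SA-XL-665, 60 min; TR-FRET read in RFU.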

[1] = molecular target: T1, Ba/F3-FGFR1-transfected cells (Homo sapiens, UniProt P11362); assay: Ba/F3-FGFR1 (minus IL3) cellular proliferation assay, Alamar Blue; format: cell-based
T1 construct: BAF3-FGFR1 (MIN IL3) pIC50; other: minus IL3
Summary of the method: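 Read-out: resazurin reduction, fluorescence ex 540 nm/em 590 nm after 4 h Alamar Blue at 37 °C. Before that, FGFR1-transfected Ba/F3 cells (20000/well) sat with compound for 24 h in RPMI-1640/10% FBS/2 mM L-Gln.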

[2] = test system: Ba/F3-FGFR1-transfected cells; assay: Ba/F3-FGFR1 (plus IL3) cellular proliferation assay, counterscreen with 10 ng/ml murine IL3; format: cell-based; conditions: read-out: BAF3-FGFR1 (PLUS IL3) pIC50 (converted)
Summary of the method: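 Ba/F3-FGFR1 cells (20000/well) in RPMI-1640 with 10% FBS exposed to compound for 24 h at 37° C., 5% CO2, then Alamar Blue (resazurin) added for 4 h; fluorescence read at ex 540/em 590 nm. Counterscreen run identically with 10 ng/ml murine IL3.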

[3] = molecular target: T2, Ba/F3-FGFR3-transfected cells (Homo sapiens, UniProt P22607); assay: Ba/F3-FGFR3 (minus IL3) cellular proliferation assay, Alamar Blue; format: cell-based
T2 construct: BAF3-FGFR3 (MIN IL3) pIC50; other: minus IL3
T2 sequence (P22607 whole entry, change not shown): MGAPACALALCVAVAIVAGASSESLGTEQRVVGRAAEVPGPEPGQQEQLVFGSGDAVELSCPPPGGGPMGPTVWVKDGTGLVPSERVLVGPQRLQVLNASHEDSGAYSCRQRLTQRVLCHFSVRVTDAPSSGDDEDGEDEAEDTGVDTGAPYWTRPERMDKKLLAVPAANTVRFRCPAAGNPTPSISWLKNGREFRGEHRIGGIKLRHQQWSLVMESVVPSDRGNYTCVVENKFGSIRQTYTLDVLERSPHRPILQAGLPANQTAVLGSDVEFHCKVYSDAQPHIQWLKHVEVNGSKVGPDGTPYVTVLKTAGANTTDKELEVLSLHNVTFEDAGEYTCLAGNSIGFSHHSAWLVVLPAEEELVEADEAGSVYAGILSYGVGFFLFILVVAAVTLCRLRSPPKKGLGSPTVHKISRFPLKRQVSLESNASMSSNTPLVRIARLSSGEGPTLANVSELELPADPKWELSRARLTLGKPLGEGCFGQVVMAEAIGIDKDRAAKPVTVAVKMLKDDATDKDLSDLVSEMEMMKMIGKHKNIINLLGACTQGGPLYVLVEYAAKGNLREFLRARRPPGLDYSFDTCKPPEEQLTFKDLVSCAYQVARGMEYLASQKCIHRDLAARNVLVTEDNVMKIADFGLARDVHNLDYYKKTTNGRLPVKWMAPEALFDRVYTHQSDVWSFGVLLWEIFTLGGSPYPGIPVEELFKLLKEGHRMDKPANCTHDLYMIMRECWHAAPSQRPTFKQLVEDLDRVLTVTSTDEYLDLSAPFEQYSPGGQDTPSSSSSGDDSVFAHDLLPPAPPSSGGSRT
Summary of the method: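 Read-out: resazurin-based Alamar Blue fluorescence (ex 540 nm, em 590 nm) after a 4 h dye incubation. FGFR3-transfected Ba/F3 cells, 20000 per well, are exposed to compound for 24 h at 37° C in RPMI-1640/10% FBS. Plus-IL3 counterscreen adds 10 ng/ml murine IL3.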

[4] = molecular target: T3, Ba/F3-KDR-transfected cells (Homo sapiens, UniProt P35968); assay: Ba/F3-KDR (minus IL3) cellular proliferation assay, Alamar Blue; format: cell-based
T3 construct: BAF3-KDR (MIN IL3) pIC50; other: minus IL3
Summary of the method: (§1)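 Ba/F3-KDR cells (20000 per well) in phenol red-free RPMI-1640 with 10% FBS were exposed to compound for 24 hours at 37° C, 5% CO2. Alamar Blue (resazurin) was then added for 4 hours, and fluorescence was read at ex. 540 nm/em. 590 nm.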

[5] = test system: Ba/F3-KDR-transfected cells; assay: Ba/F3-KDR (plus IL3) cellular proliferation assay, counterscreen with 10 ng/ml murine IL3; format: cell-based; conditions: read-out: BAF3-KDR (PLUS IL3) pIC50 (converted)
Summary of the method: as §1

[6] = plus IL3 (10 ng/ml murine IL3, counterscreen)

Chain of FGFR1 (h) (P11362 22-822): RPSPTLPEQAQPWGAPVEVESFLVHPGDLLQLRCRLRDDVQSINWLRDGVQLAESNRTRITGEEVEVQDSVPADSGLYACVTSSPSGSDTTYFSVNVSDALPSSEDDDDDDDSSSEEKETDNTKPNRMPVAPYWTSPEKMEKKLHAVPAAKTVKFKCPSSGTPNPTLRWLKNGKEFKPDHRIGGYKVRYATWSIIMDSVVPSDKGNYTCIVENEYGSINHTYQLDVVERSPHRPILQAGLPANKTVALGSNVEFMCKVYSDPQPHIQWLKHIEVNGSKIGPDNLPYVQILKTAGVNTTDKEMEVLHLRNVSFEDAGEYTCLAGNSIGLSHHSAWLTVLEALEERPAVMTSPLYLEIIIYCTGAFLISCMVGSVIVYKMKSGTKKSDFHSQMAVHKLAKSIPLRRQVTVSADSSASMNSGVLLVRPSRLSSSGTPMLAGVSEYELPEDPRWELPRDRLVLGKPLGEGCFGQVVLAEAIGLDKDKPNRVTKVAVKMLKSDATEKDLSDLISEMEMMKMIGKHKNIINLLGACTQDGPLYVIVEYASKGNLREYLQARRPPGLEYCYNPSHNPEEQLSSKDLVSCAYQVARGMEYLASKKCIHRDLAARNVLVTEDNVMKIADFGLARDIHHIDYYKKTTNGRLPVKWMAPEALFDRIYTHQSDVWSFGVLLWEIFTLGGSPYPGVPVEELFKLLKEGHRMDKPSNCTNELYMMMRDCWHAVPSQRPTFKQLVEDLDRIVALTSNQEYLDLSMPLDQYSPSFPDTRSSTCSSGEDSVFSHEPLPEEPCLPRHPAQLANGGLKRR

Row | SMILES | IC50 (FGFR1 (h)) | IC50 (FGFR2 (h)) | IC50 (FGFR3 (h)) | IC50 (FGFR4 (h)) | IC50 (KDR (h)) | BAF3-FGFR1 (MIN IL3) pIC50 [1] | IC50 [2, 6] | BAF3-FGFR3 (MIN IL3) pIC50 [3] | BAF3-KDR (MIN IL3) pIC50 [4] | IC50 [5, 6] | IC50 [2] | IC50 [5]
1 | COc1cc(OC)c(F)c(/N=c2\ccc3ncc(-c4cnn(C)c4)nc3n2CCCN2CCCC2=O)c1F [Compound 55] | 0.603 nM | 1.26 nM | 0.49 nM | 0.447 nM | 2.82 nM | 8.12 | 7.76 µM | 8.19 | 7.13 | > 10 µM | – | –
2 | COc1cc(OC)c(F)c(N(CCCN2CCCC2=O)c2ccc3ncc(-c4cnn(C)c4)nc3n2)c1F [Compound 56] | 0.891 nM | 2.82 nM | 2.75 nM | 2.29 nM | 7.76 nM | 7.53 | > 10 µM | 7.87 | 6.60 | > 10 µM | – | –
3 | COc1cc(OC)c(F)c(N(CC(O)COC(C)C)c2ccc3ncc(-c4cnn(C)c4)nc3n2)c1F (stereo not drawn) [Compound 63] | 3.72 nM | 6.17 nM | 6.31 nM | 6.03 nM | 15.8 nM | 7.90 | > 10 µM | 7.97 | 6.58 | > 10 µM | – | –
4 | COc1cc(OC)c(F)c(/N=c2\ccc3ncc(-c4cnn(C)c4)nc3n2CC(O)COC(C)C)c1F (stereo not drawn) [Compound 64] | 0.776 nM | 1.62 nM | 0.832 nM | 1 nM | 7.41 nM | 8.40 | > 10 µM | 8.12 | 6.31 | > 10 µM | – | –
5 | COc1ccc(Cl)c(N(Cc2ncc[nH]2)c2ccc3ncc(-c4cnn(C)c4)nc3n2)c1Cl [Compound 65] | 38.9 nM | ~11.2 nM | 34.7 nM | ~355 nM | 191 nM | 5.97 | > 10 µM | 6.04 | 5.06 | > 10 µM | – | –
6 | COc1cc(OC)c(F)c(N(CCN)c2ccc3ncc(-c4cnn(C)c4)nc3n2)c1F [Compound 67] | 0.813 nM | 1.78 nM | 1.2 nM | 2.75 nM | 14.5 nM | 8.20 | > 10 µM | 7.83 | 6.59 | > 10 µM | – | –
7 | COc1cc(OC)c(F)c(/N=c2\ccc3ncc(-c4cnn(C)c4)nc3n2CCN)c1F [Compound 68] | 0.575 nM | 1.58 nM | 1.62 nM | 2 nM | 15.8 nM | 7.86 | > 10 µM | 7.70 | 6.07 | > 10 µM | – | –
8 | CNCCN(c1ccc2ncc(-c3cnn(C)c3)nc2n1)c1c(F)ccc(OC)c1Cl [Compound 69] | 3.02 nM | 4.27 nM | 6.46 nM | 38.9 nM | 417 nM | 7.06 | > 10 µM | 6.76 | 5.13 | > 10 µM | – | –
9 | COc1cc(OC)cc(N(Cc2nc[nH]n2)c2ccc3ncc(-c4cnn(C)c4)nc3n2)c1 [Compound 71] | 1.07 nM | 1.55 nM | 0.776 nM | 1.62 nM | 19.1 nM | 7.49 | – | 7.71 | 6.03 | – | > 10 µM | > 10 µM
10 | COc1ccc(F)c(N(Cc2ncc[nH]2)c2ccc3ncc(-c4cnn(C)c4)nc3n2)c1Cl [Compound 73] | 2.4 nM | 2.82 nM | 2.82 nM | 15.1 nM | 63.1 nM | 7.59 | > 10 µM | 7.46 | 5.55 | > 10 µM | – | –
11 | CNCCN(c1ccc2ncc(-c3cnn(C)c3)nc2n1)c1c(Cl)c(OC)cc(OC)c1Cl [Compound 81] | 5.89 nM | 9.12 nM | 8.13 nM | 70.8 nM | 195 nM | 7.04 | > 10 µM | 6.67 | 5.36 | > 10 µM | – | –
12 | CNCCN(c1ccc2ncc(-c3cnn(C)c3)nc2n1)c1c(Cl)ccc(OC)c1Cl [Compound 83] | 75.9 nM | 49 nM | 105 nM | 933 nM | > 1000 nM | 5.36 | > 10 µM | ~5.66 | <5 | > 10 µM | – | –
13 | CNCCn1/c(=N/c2c(Cl)ccc(OC)c2Cl)ccc2ncc(-c3cnn(C)c3)nc21 [Compound 84] | 224 nM | 126 nM | 363 nM | 3550 nM | > 1000 nM | 5.15 | > 10 µM | ~5.11 | <5 | > 10 µM | – | –
14 | COc1cc(OC)c(F)c(N(Cc2nc[nH]n2)c2ccc3ncc(-c4cnn(C)c4)nc3n2)c1F [Compound 85] | 1.02 nM | 2.04 nM | 2.14 nM | 2.24 nM | 6.76 nM | 8.28 | > 10 µM | 8.14 | 6.43 | > 10 µM | – | –
15 | COc1cc(OC)c(F)c(N(Cc2nc[nH]n2)c2ccc3ncc(-c4cnn(C)c4)nc3n2)c1 [Compound 86] | 1.26 nM | 1.41 nM | 1 nM | 1.12 nM | 7.59 nM | 7.74 | > 10 µM | ~7.90 | 6.24 | > 10 µM | – | –
16 | COc1ccc(Cl)c(/N=c2\ccc3ncc(-c4cnn(C)c4)nc3n2CC2CCC(=O)N2)c1Cl (stereo not drawn) [Compound 92] | 61.7 nM | 30.2 nM | 46.8 nM | 562 nM | 309 nM | <5 | > 10 µM | ~5.61 | <5 | > 10 µM | – | –
17 | COc1cc(O)cc(N(Cc2ncc[nH]2)c2ccc3ncc(-c4cnn(C)c4)nc3n2)c1F [Compound 95] | 0.417 nM | 0.955 nM | 0.447 nM | 0.537 nM | 2.75 nM | 8.83 | 7.41 µM | ~8.46 | 6.85 | > 10 µM | – | –
18 | COc1cc(OC)c(Cl)c(N(C[C@H]2CCC(=O)N2)c2ccc3ncc(-c4cnn(C)c4)nc3n2)c1Cl [Compound 97] | 5.25 nM | 6.61 nM | 4.68 nM | 26.3 nM | 95.5 nM | 6.80 | > 10 µM | ~6.83 | 5.35 | > 10 µM | – | –
